Data taken from patent US12673055B2, “Treatment of atopic dermatitis with tradipitant” (Vanda Pharmaceuticals Inc., priority 2020, dated 2026).

System: atopic dermatitis (AD) patients with severe pruritus
Test: EPIONE randomized, placebo-controlled phase III study
Type: in vivo, human
Design: key to WI-NRS Adjusting for IGA Severity / WI-NRS (change) / Diary WI-NRS: change from baseline in WI-NRS itch score
Experimental: A randomized, placebo-controlled phase III study is conducted in atopic dermatitis (AD) patients with severe pruritus with a range of disease severity presentation from mild (23%) to moderate (64%) and severe (13%) as determined by the Investigator's Global Assessment scale (IGA). In the study, patients (n=341) are randomized 1:1 to receive either tradipitant or placebo for a treatment period of eight (8) weeks. Patients in the tradipitant arm of the study are dosed with 85 mg tradipitant twice daily (bid). Patients are assessed at baseline and post-randomization with a number of symptomatic and disease severity scales at regular intervals.
A significant interaction is observed between baseline disease severity and treatment (p=0.0004), where disease severity is measured by Investigator's Global Assessment (IGA) on a scale of 1-4.
Similar effects are seen throughout the treatment periods at all post-randomization visits comprising weeks 2, 4, 6 and 8 (Table 1).

[1] = mild AD (n = 79), 85 mg bid, Week 8

Which results are given for `O=C(c1ccccc1Cl)c1cccnc1-c1nnn(Cc2cc(C(F)(F)F)cc(C(F)(F)F)c2)c1-c1ccncc1` [Tradipitant]?
WI-NRS (change) (IGA 1, 2 (mild AD, n = 79), Tradipitant n = 40, 85 mg bid, Week 2): −2.59; WI-NRS (change) (IGA 1, 2 (mild AD, n = 79), Tradipitant n = 40, 85 mg bid, Week 4): −3.39; WI-NRS (change) (IGA 1, 2 (mild AD, n = 79), Tradipitant n = 40, 85 mg bid, Week 6): −4.18; WI-NRS (change) (IGA 1, 2 (mild AD, n = 79), Tradipitant n = 40, 85 mg bid, Week 8): −4.74; Diary WI-NRS (IGA 1, 2 (n = 79), 85 mg bid, Week 2): −1.54; Diary WI-NRS (IGA 1, 2 (n = 79), 85 mg bid, Week 4): −2.78; Diary WI-NRS (IGA 1, 2 (n = 79), 85 mg bid, Week 6): −3.48; Diary WI-NRS (IGA 1, 2 (n = 79), 85 mg bid, Week 8): −4.23; Diary WI-NRS Diff (tradipitant vs placebo) (IGA 1, 2 (n = 79), Week 2): 1.18; WI-NRS Diff (tradipitant vs placebo) (IGA 1, 2 (n = 79), Week 2): 1.61; Diary WI-NRS Diff (tradipitant vs placebo) (IGA 1, 2 (n = 79), Week 4): 1.71; WI-NRS Diff (tradipitant vs placebo) (IGA 1, 2 (n = 79), Week 4): 1.92; Diary WI-NRS Diff (tradipitant vs placebo) (IGA 1, 2 (n = 79), Week 6): 1.76; WI-NRS Diff (tradipitant vs placebo) (IGA 1, 2 (n = 79), Week 6): 1.86; Diary WI-NRS Diff (tradipitant vs placebo) (IGA 1, 2 (n = 79), Week 8): 2.09; WI-NRS Diff (tradipitant vs placebo) (IGA 1, 2 (n = 79), Week 8): 1.60; WI-NRS Adjusting for IGA Severity (ITT (n = 341), 85 mg bid, Week 2): −2.43; WI-NRS Adjusting for IGA Severity (ITT (n = 341), 85 mg bid, Week 4): −3.34; WI-NRS Adjusting for IGA Severity (ITT (n = 341), 85 mg bid, Week 6): −3.75; WI-NRS Adjusting for IGA Severity (ITT (n = 341), 85 mg bid, Week 8): −4.36; WI-NRS (change) (ITT (n = 341), Tradipitant n = 171, 85 mg bid, Week 2): −1.68; WI-NRS (change) (ITT (n = 341), Tradipitant n = 171, 85 mg bid, Week 4): −2.58; WI-NRS (change) (ITT (n = 341), Tradipitant n = 171, 85 mg bid, Week 6): −3.00; WI-NRS (change) (ITT (n = 341), Tradipitant n = 171, 85 mg bid, Week 8): −3.61; WI-NRS Adjusting for IGA Severity, Diff (tradipitant vs placebo) (ITT (n = 341), Week 2): 1.14; WI-NRS Diff (tradipitant vs placebo) (ITT (n = 341), Week 2): 0.23; WI-NRS Adjusting for IGA Severity, Diff (tradipitant vs placebo) (ITT (n = 341), Week 4): 1.29; WI-NRS Diff (tradipitant vs placebo) (ITT (n = 341), Week 4): 0.39; WI-NRS Adjusting for IGA Severity, Diff (tradipitant vs placebo) (ITT (n = 341), Week 6): 1.01; WI-NRS Diff (tradipitant vs placebo) (ITT (n = 341), Week 6): 0.11; WI-NRS Adjusting for IGA Severity, Diff (tradipitant vs placebo) (ITT (n = 341), Week 8): 1.08; WI-NRS Diff (tradipitant vs placebo) (ITT (n = 341), Week 8): 0.18; magnitude of improvement in pruritus (WI-NRS) compared with placebo (full population, week 8, difference not statistically significant): greater than that of placebo; improvement in WI-NRS compared to placebo, accounting for baseline disease severity and treatment interaction (full trial population, week 8, p=0.0217): significantly larger improvement; safety profile (in vivo): relatively safe profile; WI-NRS over placebo in the mild AD group (mild AD (IGA 1, 2), every visit): significantly improves WI-NRS over placebo at every visit; Responder Analysis: IGA 0 or 1 [1]: 60.0%; Responder Analysis: SCORAD 50% Improvement [1]: 55.0%; Responder Analysis: IGA 0 or 1, Diff (tradipitant vs placebo) (mild AD (n = 79), Week 8): 21.5%; Responder Analysis: SCORAD 50% Improvement, Diff (tradipitant vs placebo) (mild AD (n = 79), Week 8): 24.2%; Responder Analysis: WI-NRS ≥4 Improvement, Diff (tradipitant vs placebo) (mild AD (n = 79), Week 8): 39.2%; time course of response: onset of antipruritic effect (mild AD patients, daily diary): immediately after the first full day of tradipitant dosing; Responder Analysis: WI-NRS ≥4 Improvement (mild AD, IGA 1, 2 (n = 79), 85 mg bid, Week 8): 72.5%
